Counter-ions that a name gives are not always drawn. Like-named read-outs stand apart in the source and are kept apart here.
Tests used:
BIR3 domain of XIAP = BIR3 domain of XIAP (Homo sapiens (Human), UniProt P98170); assay: TR-FRET assay for BIR3 (inhibition of binding of XIAP BIR3 domain to SMAC-derived Peptide A)
BIR2 domain of XIAP = BIR2 domain of XIAP (Homo sapiens (Human), UniProt P98170, C202A/C213G); assay: TR-FRET assay for BIR2 (inhibition of binding of XIAP BIR2 domain to SMAC-derived Peptide A); conditions: 6x His-tagged BIR2 domain (aa 124-240 of XIAP) 10 nM, Peptide A 20 nM, TR-FRET; read-out: IC50 BIR2
[1] = 6x His-tagged BIR3 domain (aa 241-356 of XIAP) 10 nM, Peptide A 20 nM, TR-FRET

BIR2 domain of XIAP, sequence (P98170 124-240 with tags or gaps C202A/C213G limits assumed): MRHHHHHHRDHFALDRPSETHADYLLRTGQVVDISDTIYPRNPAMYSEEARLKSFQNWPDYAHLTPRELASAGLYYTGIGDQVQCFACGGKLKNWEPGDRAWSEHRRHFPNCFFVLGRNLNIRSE
BIR3 domain of XIAP, sequence (P98170 241-356 with tags or gaps limits assumed): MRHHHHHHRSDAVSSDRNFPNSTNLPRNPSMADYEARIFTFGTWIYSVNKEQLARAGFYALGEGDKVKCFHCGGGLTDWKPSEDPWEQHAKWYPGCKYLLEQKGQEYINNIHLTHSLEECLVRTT

Row | SMILES | IC50 (BIR3 domain of XIAP; [1]) [µM] | IC50 (BIR2 domain of XIAP) [µM] | IC50 (BIR3 domain of XIAP) [µM]
1 | CN[C@@H](C)C(=O)N[C@H]1CN2C(=O)CCCCNC(=O)c3ccc4c(c(OC)ccc4c3)CN(C1=O)c1ccccc12 [Example 54, Cyclic-5-[(S)-5-(5-amino-pentanoyl)-3-((S)-2-methylamino-propionylamino)-2-oxo-2,3,4,5-tetrahydro-benzo[b][1,4]diazepin-1-ylmethyl]-6-methoxy-naphthalene-2-carboxylic amide hydrochloride] | 16 | 0.018 | 
2 | CN[C@@H](C)C(=O)N[C@H]1CN(C(=O)c2ccc(NC(=O)OCC3c4ccccc4-c4ccccc43)cc2)c2ccccc2N(Cc2c(OC)ccc3cc(C(=O)OC)ccc23)C1=O [Example 55, 5-[(S)-5-[4-(9H-Fluoren-9-ylmethoxycarbonylamino)-benzoyl]-3-((S)-2-methylamino-propionylamino)-2-oxo-2,3,4,5-tetrahydro-benzo[b][1,4]diazepin-1-ylmethyl]-6-methoxy-naphthalene-2-carboxylic acid methyl ester hydrochloride] | > 54.8 | 0.022 | 
3 | CN[C@@H](C)C(=O)N[C@H]1CN(C(=O)c2ccc(N)cc2)c2ccccc2N(Cc2c(OC)ccc3cc(C(=O)O)ccc23)C1=O [Example 57, 5-(((S)-5-(4-aminobenzoyl)-3-((S)-2-(methylamino)propanamido)-2-oxo-2,3,4,5-tetrahydro-1H-benzo[b][1,4]diazepin-1-yl)methyl)-6-methoxy-2-naphthoic acid hydrochloride] | 20.8 | 0.007 | 
4 | CN[C@@H](C)C(=O)N[C@H]1CN2CCNC(=O)c3ccc4c(c(OC)ccc4c3)CN(C1=O)c1ccccc12 [Example 59, Cyclic-5-[(S)-5-(2-Amino-ethyl)-3-((S)-2-methylamino-propionylamino)-2-oxo-2,3,4,5-tetrahydro-benzo[b][1,4]diazepin-1-ylmethyl]-6-methoxy-naphthalene-2-carboxylic amide hydrochloride] | 31.4 | 3.78 | 
5 | CN[C@@H](C)C(=O)N[C@H]1CN(C(=O)CCCCC(=O)O)c2ccccc2N(Cc2c(C)ccc3ccccc23)C1=O [Example 60, 6-((S)-3-((S)-2-(methylamino)propanamido)-5-((2-methylnaphthalen-1-yl)methyl)-4-oxo-2,3,4,5-tetrahydro-1H-benzo[b][1,4]diazepin-1-yl)-6-oxohexanoic acid hydrochloride] | > 54.8 | 0.166 | 
6 | CN[C@@H](C)C(=O)N[C@H]1CN(C(=O)CCN)c2ccccc2N(Cc2c(OC)ccc3cc(C(=O)OC)ccc23)C1=O [Example 61, 5-[(S)-5-(3-Amino-propionyl)-3-((S)-2-methylamino-propionylamino)-2-oxo-2,3,4,5-tetrahydro-benzo[b][1,4]diazepin-1-ylmethyl]-6-methoxy-naphthalene-2-carboxylic acid methyl ester hydrochloride] | > 54.8 | 0.072 | 
7 | CN[C@@H](C)C(=O)N[C@H]1CN2C(=O)CCNC(=O)c3ccc4c(c(OC)ccc4c3)CN(C1=O)c1ccccc12 [Example 63, Cyclic-5-[(S)-5-(3-Amino-propionyl)-3-((S)-2-methylamino-propionylamino)-2-oxo-2,3,4,5-tetrahydro-benzo[b][1,4]diazepin-1-ylmethyl]-6-methoxy-naphthalene-2-carboxylic amide hydrochloride] | 43 | 0.019 | 
8 | COc1ccc2ccccc2c1CN1C(=O)[C@@H](NC(=O)[C@H](C)N)CN(C(=O)c2ccc(N)cc2)c2ccccc21 [Example 65, (S)-2-amino-N—((S)-5-(4-aminobenzoyl)-1-((2-methoxynaphthalen-1-yl)methyl)-2-oxo-2,3,4,5-tetrahydro-1H-benzo[b][1,4]diazepin-3-yl)propanamide] | 23.6 | 0.007 | 
9 | CN[C@@H](C)C(=O)N[C@H]1CN(C(=O)c2ccc(N)cc2)c2ccccc2N(Cc2c(C)ccc3ccccc23)C1=O [Example 67, (S)—N—((S)-5-(4-aminobenzoyl)-1-((2-methylnaphthalen-1-yl)methyl)-2-oxo-2,3,4,5-tetrahydro-1H-benzo[b][1,4]diazepin-3-yl)-2-(methylamino)propanamide hydrochloride] | > 54.8 | 0.022 | 
10 | CN[C@@H](C)C(=O)N[C@H]1CN(C(=O)c2ccc(C(C)=O)cc2)c2ccccc2N(Cc2noc3cc(Br)ccc23)C1=O [Example 69e] | 50.3 | 0.049 | 
11 | CN[C@@H](C)C(=O)N[C@H]1CN(C(=O)c2ccc(C(C)=O)cc2)c2ccccc2N(Cc2c(OC)ccc3ccccc23)C1=O [Example 69g] | 42.5 | 0.011 | 
12 | CC(=O)c1ccc(C(=O)N2C[C@H](NC(=O)[C@H](C)N)C(=O)N(Cc3c(OCC(F)(F)F)ccc4ccccc34)c3ccccc32)cc1 [Example 69h] | 30.3 | 0.02 | 
13 | CC(=O)c1ccc(C(=O)N2C[C@H](NC(=O)[C@H](C)N)C(=O)N(Cc3c(OC(F)F)ccc4ccccc34)c3ccccc32)cc1 [Example 69i] | 52 | 0.039 | 
14 | COc1ccc2c(CN3C(=O)[C@@H](NC(=O)[C@H](C)N)CN(C(=O)c4ccc(C(C)=O)cc4)c4ccccc43)cc(=O)oc2c1 [Example 69j] | > 54.8 | 0.213 | 
15 | CC(=O)c1ccc(C(=O)N2C[C@H](NC(=O)[C@H](C)N)C(=O)N(Cc3noc4ccccc34)c3ccccc32)cc1 [Example 69k] | > 54.8 | 0.027 | 
16 | CN[C@@H](C)C(=O)N[C@H]1CN(C(=O)c2ccc(N)cc2)c2ccccc2N(Cc2noc3ccccc23)C1=O [Example 71, (S)—N—((S)-5-(4-Aminobenzoyl)-1-(benzo[d]isoxazol-3-ylmethyl)-2-oxo-2,3,4,5-tetrahydro-1H-benzo[b][1,4]diazepin-3-yl)-2-(methylamino)propanamide hydrochloride] | > 54.8 | 0.064 | 
17 | CN[C@@H](C)C(=O)N[C@H]1CN(C(=O)c2ccc(C#N)cc2)c2ccccc2N(Cc2c(OC(F)F)ccc3ccccc23)C1=O [Example 74, (S)—N—((S)-5-(4-Cyanobenzoyl)-1-((2-(difluoromethoxy)naphthalen-1-yl)methyl)-2-oxo-2,3,4,5-tetrahydro-1H-benzo[b][1,4]diazepin-3-yl)-2-(methylamino)propanamide] | > 54.8 | 0.049 | 
18 | CN[C@@H](C)C(=O)N[C@H]1CN(C(=O)c2ccc(NC(C)=O)cc2)c2ccccc2N(Cc2c(OC)ccc3cc(Br)ccc23)C1=O [Example 76d] | 33.2 | 0.005 | 
19 | CN[C@@H](C)C(=O)N[C@H]1CN(Cc2ccc(C#N)cc2)c2ccccc2N(Cc2c(OC)ccc3cc(Br)ccc23)C1=O [Example 78, (S)—N—((S)-1-((6-Bromo-2-methoxynaphthalen-1-yl)methyl)-5-(4-cyanobenzyl)-2-oxo-2,3,4,5-tetrahydro-1H-benzo[b][1,4]diazepin-3-yl)-2-(methylamino)propanamide trifluoroacetate] | 17.1 | 0.03 | 
20 | CC[C@H](NC)C(=O)N[C@H]1CN(C(=O)c2ccc(C(C)=O)cc2)c2ccccc2N(Cc2c(OC)ccc3cc(Br)ccc23)C1=O [Example 79, (S)—N—((S)-5-(4-Acetylbenzoyl)-1-((6-bromo-2-methoxynaphthalen-1-yl)methyl)-2-oxo-2,3,4,5-tetrahydro-1H-benzo[b][1,4]diazepin-3-yl)-2-(methylamino)butanamide hydrochloride] | 3.48 | 0.001 | 
21 | CCN[C@@H](C)C(=O)N[C@H]1CN(C(=O)c2ccc(C(C)=O)cc2)c2ccccc2N(Cc2c(OC)ccc3cc(Br)ccc23)C1=O [Example 80, (S)—N—((S)-5-(4-Acetylbenzoyl)-1-((6-bromo-2-methoxynaphthalen-1-yl)methyl)-2-oxo-2,3,4,5-tetrahydro-1H-benzo[b][1,4]diazepin-3-yl)-2-(ethylamino)propanamide hydrochloride] |  | 0.014 | > 54.8
22 | CN[C@@H](C)C(=O)N[C@H]1CN(C(=O)CS(C)(=O)=O)c2ccccc2N(Cc2c(OC)ccc3ccccc23)C1=O [Example 82, (S)—N—((S)-1-((2-Methoxynaphthalen-1-yl)methyl)-5-(2-(methylsulfonyl)acetyl)-2-oxo-2,3,4,5-tetrahydro-1H-benzo[b][1,4]diazepin-3-yl)-2-(methylamino)propanamide hydrochloride] | > 54.8 | 0.029 | 
23 | CN[C@@H](C)C(=O)N[C@H]1CN(C(=O)CS(C)(=O)=O)c2ccccc2N(Cc2c(OC(F)F)ccc3ccccc23)C1=O [Example 83, (S)—N—((S)-1-((2-(Difluoromethoxy)naphthalen-1-yl)methyl)-5-(2-(methylsulfonyl)acetyl)-2-oxo-2,3,4,5-tetrahydro-1H-benzo[b][1,4]diazepin-3-yl)-2-(methylamino)propanamide hydrochloride] | > 54.8 | 0.121 | 
24 | CN[C@@H](C)C(=O)N[C@H]1CN(C(=O)Cc2cccnc2)c2ccccc2N(Cc2c(OC)ccc3c(Br)cccc23)C1=O [Example 88, (S)—N—((S)-1-((5-bromo-2-methoxynaphthalen-1-yl)methyl)-2-oxo-5-(2-(pyridin-3-yl)acetyl)-2,3,4,5-tetrahydro-1H-benzo[b][1,4]diazepin-3-yl)-2-(methylamino)propanamide hydrochloride] | 39.9 | 0.014 | 
25 | CN[C@@H](C)C(=O)N[C@H]1CN(C(=O)c2cccc(C#N)c2)c2ccccc2N(Cc2c(OC)ccc3cc(Br)ccc23)C1=O [Example 90c] | 21.9 | 0.006 | 
26 | CN[C@@H](C)C(=O)N[C@H]1CN(C(=O)c2ccc(C(F)(F)F)cc2)c2ccccc2N(Cc2c(OC)ccc3cc(Br)ccc23)C1=O [Example 91d] | > 54.8 | 0.018 | 
27 | CN[C@@H](C)C(=O)N[C@H]1CN(C(=O)c2ccc(C)cc2)c2ccccc2N(Cc2c(OC)ccc3c(Br)cccc23)C1=O [Example 93, (S)—N—[(S)-1-(5-Bromo-2-methoxy-naphthalen-1-ylmethyl)-5-(4-methyl-benzoyl)-2-oxo-2,3,4,5-tetrahydro-1H-benzo[b][1,4]diazepin-3-yl]-2-methylamino-propionamide hydrochloride] | 47.6 | 0.018 | 
